Laboratory results from article PMC4460250, “Systems Pharmacology Dissecting Holistic Medicine for Treatment of Complex Diseases: An Example Using Cardiocerebrovascular Diseases Treated by TCM” (Evidence-based Complementary and Alternative Medicine : eCAM, 2015).

How the values were obtained:
[1] = in vivo
[2] = in vivo; cited from earlier work

Structure (SMILES)	Class(High: HIA value ≥0.7; Low: HIA value < 0.7) [1]	HIA(Human Intestinal Absorption) [2]
CCCC(=O)Nc1ccc(OC[C@H](O)CNC(C)C)c(C(C)=O)c1 [Acebutolol(R)]	High (key: High: HIA value ≥0.7; Low: HIA value < 0.7)	0.85
CCN[C@H](C)Cc1cccc(C(F)(F)F)c1 [Fenfluramine(R)]	High (key: High: HIA value ≥0.7; Low: HIA value < 0.7)	0.95
CC(C)(C)NCC(O)COc1nsnc1N1CCOCC1 (stereo in doubt) [Timolol(R)]	High (key: High: HIA value ≥0.7; Low: HIA value < 0.7)	0.95
C[C@H](NC(C)(C)C)C(=O)c1cccc(Cl)c1 [Bupropion(S)]	High (key: High: HIA value ≥0.7; Low: HIA value < 0.7)	0.87
CCN(CCCCOC(=O)c1ccc(OC)c(OC)c1)[C@@H](C)Cc1ccc(OC)cc1 [Mebeverine(S)]	High (key: High: HIA value ≥0.7; Low: HIA value < 0.7)	0.9
C[C@]12CC[C@@H]3c4ccc(OC(=O)N(CCCl)CCCl)cc4CC[C@H]3[C@@H]1CC[C@@H]2O [Estramustine]	High (key: High: HIA value ≥0.7; Low: HIA value < 0.7)	0.75
CC(C)NC[C@H](O)c1cc(O)cc(O)c1 [Metaproterenol(R)]	Low (key: High: HIA value ≥0.7; Low: HIA value < 0.7)	0.43
CN1CCN(C(=O)O[C@@H]2c3nccnc3C(=O)N2c2ccc(Cl)cn2)CC1 [Zopiclone(R)]	High (key: High: HIA value ≥0.7; Low: HIA value < 0.7)	0.98
OC(O)C(Cl)(Cl)Cl [Chloral_hydrate]	High (key: High: HIA value ≥0.7; Low: HIA value < 0.7)	1
NS(=O)(=O)c1cc([C@]2(O)NC(=O)c3ccccc32)ccc1Cl [Chlorthalidone(R)]	Low (key: High: HIA value ≥0.7; Low: HIA value < 0.7)	0.65
CC(C)NC[C@@H](O)COc1cccc2[nH]ccc12 [Pindolol(R)]	High (key: High: HIA value ≥0.7; Low: HIA value < 0.7)	0.9
Cc1ccc(-c2nc3ccc(C)cn3c2CC(=O)N(C)C)cc1 [Zolpidem]	High (key: High: HIA value ≥0.7; Low: HIA value < 0.7)	0.95
CC(C)C[C@@H](N(C)C)C1(c2ccc(Cl)cc2)CCC1 [Sibutramine(R)]	High (key: High: HIA value ≥0.7; Low: HIA value < 0.7)	0.77
CC(N)C(O)c1ccccc1 (stereo not shown) [Phenylpropanolamine]	High (key: High: HIA value ≥0.7; Low: HIA value < 0.7)	0.95
CC[C@H](c1ccccc1)c1c(O)c2ccccc2oc1=O [Phenprocoumon(R)]	High (key: High: HIA value ≥0.7; Low: HIA value < 0.7)	0.95
C[C@H]1O[C@H](O[C@H]2[C@H](O)[C@@H](O)[C@@H](O[C@H]3[C@H](O)[C@@H](O)C(O)O[C@@H]3CO)O[C@@H]2CO)[C@H](O)[C@@H](O)[C@@H]1N[C@H]1C=C(CO)[C@@H](O)[C@H](O)[C@H]1O (stereo partly shown) [Acarbose]	Low (key: High: HIA value ≥0.7; Low: HIA value < 0.7)	0.02
CCCCCCCN(CC)CCC[C@H](O)c1ccc(NS(C)(=O)=O)cc1 [Ibutilide(S)]	High (key: High: HIA value ≥0.7; Low: HIA value < 0.7)	0.82
O=[N+]([O-])O[C@H]1CO[C@H]2[C@@H]1OC[C@H]2O[N+](=O)[O-] [Isosorbide_dinitrate]	High (key: High: HIA value ≥0.7; Low: HIA value < 0.7)	1
COC(=O)C1=C(C#N)NC(C)=C(C(=O)OC(C)C)[C@H]1c1cccc([N+](=O)[O-])c1 [Nilvadipine(R)]	High (key: High: HIA value ≥0.7; Low: HIA value < 0.7)	1
Cc1ncsc1CCCl [Clomethiazole]	High (key: High: HIA value ≥0.7; Low: HIA value < 0.7)	0.95
COCCc1ccc(OC[C@H](O)CNC(C)C)cc1 [Metoprolol(R)]	High (key: High: HIA value ≥0.7; Low: HIA value < 0.7)	0.96
CC(C)C[C@H](N(C)C)C1(c2ccc(Cl)cc2)CCC1 [Sibutramine(S)]	High (key: High: HIA value ≥0.7; Low: HIA value < 0.7)	0.77
COc1cccc(C2(O)CCCCC2CN(C)C)c1 (stereo not shown) [Tramadol]	High (key: High: HIA value ≥0.7; Low: HIA value < 0.7)	0.9
